Experimental data: patent EP0341661A2, “Peptide-drug compositions containing alpha-aminoboronic acid derivatives” (THE DU PONT MERCK PHARMACEUTICAL COMPANY, priority 1988, dated 1989)
Structures can show the parent of a compound that is named as a salt.

Tested on: aminopeptidases
Assay: In situ nasal perfusion: disappearance of 35 µM LH-RH (fragment 3-10) in the nasal perfusate
Type: in vivo, Sprague-Dawley rats
Details: 0.465 µM Boroleucine
Protocol: The method involved the use of Sprague-Dawley rats weighing approximately 300 grams. Each rat was anesthetized with sodium pentobarbitol (50 mg/kg). An incision was made in the neck and the trachea was canulated with PE 240 tubing. For the in situ studies, a second tube, which served to introduce the perfusing solution, was inserted through the esophagus to the posterior part of the nasal cavity. The nasopalatine was closed with an adhesive to prevent drainage of the perfusing solution from the nasal to the oral cavity. For the in vivo in situ studies, the esophagus was canulated using PE 240 tubing closed at one end. The closed end was pushed to the posterior end of the nasal passage and then tied in place. The nasopalatine was closed with an adhesive to prevent drainage of the perfusing solution from the nasal to the oral cavity. The rats were dosed in one nostril with 50 µl of peptide solution in two forms; the control solution had no inhibitor added, the test solution had inhibitor added at concentrations specified in the examples shown below. The dosing solution was 0.1 M phosphate buffer (pH 7.4). At certain time intervals (one rat/time interval), the drug was washed from the nose via the other nostril with 10 ml of 0.1 M phosphate buffer (pH 3.8) using a peristaltic pump. The nasal washing was then placed in a 10 ml volumetric flask and adjusted to 10 ml with the same buffer and analyzed for the peptide by HPLC.
The analysis of leucine enkephalin and its major metabolite involved taking aliquots of samples, diluting them with 200 µl of 0.1 M citric acid (pH 2.3) to quench hydrolysis and subjecting the samples to analysis (for in vivo in situ studies, the washings were injected as they were obtained). High Pressure Liquid Chromatography (HPLC) was run on a 4.6 x 250 mm C₈ column. The mobile phase consisted of 0.1 M NaH₂PO₄-H₃PO₄-acetonitrile (916 : 5 : 275) and was delivered at a flow rate of 1.7 ml/min. Detection was by UV at 210 nm. Retention times for leucine enkephalin and its major degradation product, Des-Tyr-leucine enkephalin were 7.3 and 4.8 min., respectively. Data were calculated as % of leucine enkephalin remaining in the nasal perfusate as a function of time, counting the concentration at zero time as 100%.
A 10 ml portion of the peptide solution was placed in a water-jacketed container, maintained at 37°C and circulated through the nasal cavity of rats using a peristaltic pump. The perfusing solution was passed through the nasal cavity, out the nostrils, through a funnel, and returned to the water-jacketed container. The perfusate was analyzed by the ANALYTICAL METHOD described above.
In this example, a 0.1 M phosphate buffer solution (pH 7.4) containing 35 µM LH-RH (fragment 3-10) in the absence of inhibitor and in the presence of the inhibitor, boroleucine at a concentration of 0.46 µM was administered to rats as described in Example 1. The perfusate was analyzed by HPLC as described in Example 1 with the exception of the mobile phase used. The mobile phase was comprised of 0.1 M NaH₂PO₄:H₃PO₄:CH₃CN(916:5:240) delivered at 1.7 ml/min and analyzed by UV at 210 nm.

CC(C)CC(N)B1OC(C)(C)C(C)(C)O1 (stereo not shown) [boroleucine, 3-methyl-1(4,4,5,5-tetramethyl-1,3,2-dioxaborolane-2-yl)-1-butamine, trifluoroacetic acid salt]
LH-RH (fragment 3-10) remaining in the nasal perfusate (0 min): 100.0%
LH-RH (fragment 3-10) remaining in the nasal perfusate (5 min): 96.7%
LH-RH (fragment 3-10) remaining in the nasal perfusate (10 min): 97.5%
LH-RH (fragment 3-10) remaining in the nasal perfusate (20 min): 95.5%
LH-RH (fragment 3-10) remaining in the nasal perfusate (30 min): 96.5%
LH-RH (fragment 3-10) remaining in the nasal perfusate (45 min): 95.8%
LH-RH (fragment 3-10) remaining in the nasal perfusate (60 min): 91.9%
LH-RH (fragment 3-10) remaining in the nasal perfusate (90 min): 92.9%
LH-RH (fragment 3-10) remaining in the nasal perfusate (120 min, listed as Boroleucine, trifluoroacetic acid salt): 86.4%
LH-RH (fragment 3-10) remaining in the nasal perfusate (120 min, trifluoroacetic acid salt): about 86%
